Source: patent US9487515B2, “Compounds modulating c-fms and/or c-kit activity and uses therefor” (Plexxikon Inc., priority 2006, dated 2016)

Each molecule was assayed against c-kit (Homo sapiens, UniProt P10721) (assay: c-kit assays of Examples 40 and 41 (AlphaScreen kinase assays at 10 and 100 μM ATP, 33P-ATP filter assay, M-07e SCF-stimulated proliferation and phosphorylation)).
c-kit, sequence (P10721 with tags, fused parts or gaps): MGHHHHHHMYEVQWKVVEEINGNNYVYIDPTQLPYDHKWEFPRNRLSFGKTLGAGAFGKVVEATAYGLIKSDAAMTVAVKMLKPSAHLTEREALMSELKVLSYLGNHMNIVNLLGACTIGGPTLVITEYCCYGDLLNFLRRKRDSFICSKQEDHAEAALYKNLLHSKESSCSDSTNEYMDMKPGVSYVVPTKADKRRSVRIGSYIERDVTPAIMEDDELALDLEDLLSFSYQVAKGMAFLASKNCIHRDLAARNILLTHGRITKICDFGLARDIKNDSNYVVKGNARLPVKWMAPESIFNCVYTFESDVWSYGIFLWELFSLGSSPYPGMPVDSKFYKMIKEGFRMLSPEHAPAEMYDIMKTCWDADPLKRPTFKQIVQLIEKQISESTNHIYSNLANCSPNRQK

IC50, < 1000 nM:
Cc1cnc2[nH]cc(Cc3ccc(NCc4cc(F)ccc4F)nc3)c2c1 [P-0297, (2,5-Difluoro-benzyl)-[5-(5-methyl-1H-pyrrolo[2,3-b]pyridin-3-ylmethyl)-pyridin-2-yl]-amine]
Fc1ccc(F)c(CNc2ccc(Cc3c[nH]c4ncc(Cl)cc34)cn2)c1 [P-0298, [5-(5-Chloro-1H-pyrrolo[2,3-b]pyridin-3-ylmethyl)-pyridin-2-yl]-(2,5-difluoro-benzyl)-amine]
Clc1ccccc1CNc1ncc(Cc2c[nH]c3ncccc23)cn1 [P-0301, (2-Chloro-benzyl)-[5-(1H-pyrrolo[2,3-b]pyridin-3-ylmethyl)-pyrimidin-2-yl]-amine]
FC(F)(F)c1ccccc1CNc1ncc(Cc2c[nH]c3ncccc23)cn1 [P-0302, [5-(1H-Pyrrolo[2,3-b]pyridin-3-ylmethyl)-pyrimidin-2-yl]-(2-trifluoromethyl-benzyl)-amine]
Clc1ccc(CNc2ncc(Cc3c[nH]c4ncccc34)cn2)c(Cl)c1 [P-0305, (2,4-Dichloro-benzyl)-[5-(1H-pyrrolo[2,3-b]pyridin-3-ylmethyl)-pyrimidin-2-yl]-amine]
Fc1ccc(CNc2ncc(Cc3c[nH]c4ncccc34)cn2)c(F)c1 [P-0306, (2,4-Difluoro-benzyl)-[5-(1H-pyrrolo[2,3-b]pyridin-3-ylmethyl)-pyrimidin-2-yl]-amine]
Clc1ccc(CNc2ncc(Cc3c[nH]c4ncccc34)cn2)cc1 [P-0307, (4-Chloro-benzyl)-[5-(1H-pyrrolo[2,3-b]pyridin-3-ylmethyl)-pyrimidin-2-yl]-amine]
FC(F)(F)c1ccc(CNc2ncc(Cc3c[nH]c4ncccc34)cn2)cc1 [P-0308, [5-(1H-Pyrrolo[2,3-b]pyridin-3-ylmethyl)-pyrimidin-2-yl]-(4-trifluoromethyl-benzyl)-amine]
Fc1c(CNc2ncc(Cc3c[nH]c4ncccc34)cn2)cccc1C(F)(F)F [P-0309, (2-Fluoro-3-trifluoromethyl-benzyl)-[5-(1H-pyrrolo[2,3-b]pyridin-3-ylmethyl)-pyrimidin-2-yl]-amine]
Fc1c(Cl)cccc1CNc1ncc(Cc2c[nH]c3ncccc23)cn1 [P-0311, (3-Chloro-2-fluoro-benzyl)-[5-(1H-pyrrolo[2,3-b]pyridin-3-ylmethyl)-pyrimidin-2-yl]-amine]
FC(F)Oc1ccccc1CNc1ncc(Cc2c[nH]c3ncccc23)cn1 [P-0312, (2-Difluoromethoxy-benzyl)-[5-(1H-pyrrolo[2,3-b]pyridin-3-ylmethyl)-pyrimidin-2-yl]-amine]
Clc1cccc(CNc2ncc(Cc3c[nH]c4ncccc34)cn2)c1Cl [P-0313, (2,3-Dichloro-benzyl)-[5-(1H-pyrrolo[2,3-b]pyridin-3-ylmethyl)-pyrimidin-2-yl]-amine]
Fc1cc(Cl)ccc1CNc1ncc(Cc2c[nH]c3ncccc23)cn1 [P-0314, (4-Chloro-2-fluoro-benzyl)-[5-(1H-pyrrolo[2,3-b]pyridin-3-ylmethyl)-pyrimidin-2-yl]-amine]
Fc1ccc(CNc2ncc(Cc3c[nH]c4ncccc34)cn2)c(Cl)c1 [P-0316, (2-Chloro-4-fluoro-benzyl)-[5-(1H-pyrrolo[2,3-b]pyridin-3-ylmethyl)-pyrimidin-2-yl]-amine]
Fc1cc(C(F)(F)F)ccc1CNc1ncc(Cc2c[nH]c3ncccc23)cn1 [P-0319, (2-Fluoro-4-trifluoromethyl-benzyl)-[5-(1H-pyrrolo[2,3-b]pyridin-3-ylmethyl)-pyrimidin-2-yl]-amine]
Fc1ccc(CNc2ncc(Cc3c[nH]c4ncccc34)cn2)c(C(F)(F)F)c1 [P-0320, (4-Fluoro-2-trifluoromethyl-benzyl)-[5-(1H-pyrrolo[2,3-b]pyridin-3-ylmethyl)-pyrimidin-2-yl]-amine]
N#Cc1cnc2[nH]cc(Cc3ccc(NCc4ccccc4OC(F)(F)F)nc3)c2c1 [P-0321, 3-[6-(2-Trifluoromethoxy-benzylamino)-pyridin-3-ylmethyl]-1H-pyrrolo[2,3-b]pyridine-5-carbonitrile]
FC(F)(F)Oc1ccccc1CNc1ccc(Cc2c[nH]c3ncccc23)cn1 [P-0322, [5-(1H-Pyrrolo[2,3-b]pyridin-3-ylmethyl)-pyridin-2-yl]-(2-trifluoromethoxy-benzyl)-amine]
CCOc1ccccc1CNc1ccc(Cc2c[nH]c3ncc(C#N)cc23)cn1 [P-0323, 3-[6-(2-Ethoxy-benzylamino)-pyridin-3-ylmethyl]-1H-pyrrolo[2,3-b]pyridine-5-carbonitrile]
Fc1cnc2[nH]cc(Cc3ccc(NCc4ccccc4C(F)(F)F)nc3)c2c1 [P-0325, [5-(5-Fluoro-1H-pyrrolo[2,3-b]pyridin-3-ylmethyl)-pyridin-2-yl]-(2-trifluoromethyl-benzyl)-amine]
COc1cnc2[nH]cc(Cc3ccc(NCc4ccccc4C(F)(F)F)nc3)c2c1 [P-0326, [5-(5-Methoxy-1H-pyrrolo[2,3-b]pyridin-3-ylmethyl)-pyridin-2-yl]-(2-trifluoromethyl-benzyl)-amine]
Fc1cnc2[nH]cc(Cc3ccc(NCc4ccccc4Cl)nc3)c2c1 [P-0327, (2-Chloro-benzyl)-[5-(5-fluoro-1H-pyrrolo[2,3-b]pyridin-3-ylmethyl)-pyridin-2-yl]-amine]
COc1cnc2[nH]cc(Cc3ccc(NCc4ccccc4Cl)nc3)c2c1 [P-0328, (2-Chloro-benzyl)-[5-(5-methoxy-1H-pyrrolo[2,3-b]pyridin-3-ylmethyl)-pyridin-2-yl]-amine]
Fc1ccc(F)c(CNc2ccc(Cc3c[nH]c4ncc(F)cc34)cn2)c1 [P-0329, (2,5-Difluoro-benzyl)-[5-(5-fluoro-1H-pyrrolo[2,3-b]pyridin-3-ylmethyl)-pyridin-2-yl]-amine]
COc1cnc2[nH]cc(Cc3ccc(NCc4cc(F)ccc4F)nc3)c2c1 [P-0330, (2,5-Difluoro-benzyl)-[5-(5-methoxy-1H-pyrrolo[2,3-b]pyridin-3-ylmethyl)-pyridin-2-yl]-amine]
COc1ccc(CNc2ccc(Cc3c[nH]c4ncc(F)cc34)cn2)cn1 [P-0331, [5-(5-Fluoro-1H-pyrrolo[2,3-b]pyridin-3-ylmethyl)-pyridin-2-yl]-(6-methoxy-pyridin-3-ylmethyl)-amine]
COc1cnc2[nH]cc(Cc3ccc(NCc4ccc(OC)nc4)nc3)c2c1 [P-0332, (6-Methoxy-pyridin-3-ylmethyl)-[5-(5-methoxy-1H-pyrrolo[2,3-b]pyridin-3-ylmethyl)-pyridin-2-yl]-amine]
COc1cnc2[nH]cc(Cc3ccc(NCc4c(F)cccc4F)nc3)c2c1 [P-0334, (2,6-Difluoro-benzyl)-[5-(5-methoxy-1H-pyrrolo[2,3-b]pyridin-3-ylmethyl)-pyridin-2-yl]-amine]
COc1ccccc1CNc1ccc(Cc2c[nH]c3ncccc23)cn1 [P-0336, (2-Methoxy-benzyl)-[5-(1H-pyrrolo[2,3-b]pyridin-3-ylmethyl)-pyridin-2-yl]-amine]
COc1ccccc1CNc1ccc(Cc2c[nH]c3ncc(C#N)cc23)cn1 [P-0337, 3-[6-(2-Methoxy-benzylamino)-pyridin-3-ylmethyl]-1H-pyrrolo[2,3-b]pyridine-5-carbonitrile]
FC(F)Oc1ccccc1CNc1ccc(Cc2c[nH]c3ncc(Cl)cc23)cn1 [P-0338, [5-(5-Chloro-1H-pyrrolo[2,3-b]pyridin-3-ylmethyl)-pyridin-2-yl]-(2-difluoromethoxy-benzyl)-amine]
N#Cc1cnc2[nH]cc(Cc3ccc(NCc4ccccc4OC(F)F)nc3)c2c1 [P-0339, 3-[6-(2-Difluoromethoxy-benzylamino)-pyridin-3-ylmethyl]-1H-pyrrolo[2,3-b]pyridine-5-carbonitrile]
Fc1cccc(F)c1CNc1ccc(Cc2c[nH]c3ncccc23)cn1 [P-0340, (2,6-Difluoro-benzyl)-[5-(1H-pyrrolo[2,3-b]pyridin-3-ylmethyl)-pyridin-2-yl]-amine]
Clc1ccc(CNc2ccc(Cc3c[nH]c4ncccc34)cn2)c(Cl)c1 [P-0342, (2,4-Dichloro-benzyl)-[5-(1H-pyrrolo[2,3-b]pyridin-3-ylmethyl)-pyridin-2-yl]-amine]
Fc1cccc(CNc2ccc(Cc3c[nH]c4ncccc34)cn2)c1 [P-0343, (3-Fluoro-benzyl)-[5-(1H-pyrrolo[2,3-b]pyridin-3-ylmethyl)-pyridin-2-yl]-amine]
Fc1cc(C(F)(F)F)ccc1CNc1ccc(Cc2c[nH]c3ncccc23)cn1 [P-0344, (2-Fluoro-4-trifluoromethyl-benzyl)-[5-(1H-pyrrolo[2,3-b]pyridin-3-ylmethyl)-pyridin-2-yl]-amine]
Fc1cc(Cl)ccc1CNc1ccc(Cc2c[nH]c3ncccc23)cn1 [P-0345, (4-Chloro-2-fluoro-benzyl)-[5-(1H-pyrrolo[2,3-b]pyridin-3-ylmethyl)-pyridin-2-yl]-amine]
Fc1cc(CNc2ccc(Cc3c[nH]c4ncccc34)cn2)cc(C(F)(F)F)c1 [P-0346, (3-Fluoro-5-trifluoromethyl-benzyl)-[5-(1H-pyrrolo[2,3-b]pyridin-3-ylmethyl)-pyridin-2-yl]-amine]
c1cnc(N2CCOCC2)c(CNc2ccc(Cc3c[nH]c4ncccc34)cn2)c1 [P-0347, (2-Morpholin-4-yl-pyridin-3-ylmethyl)-[5-(1H-pyrrolo[2,3-b]pyridin-3-ylmethyl)-pyridin-2-yl]-amine]
